Measured values as given in PMC5909127, “Optimization of a “bump-and-hole” approach to allele-selective BET bromodomain inhibition” (Chemical Science, 2018).

Columns and labels:
[1] = molecular target: BRD2 BD1 WT (Homo sapiens, UniProt P25440); assay: competitive AlphaLISA; assay type: binding
[2] = Plasma Half-life; conditions: BALB/c, mouse, pH 7.4
[3] = molecular target: BRD3 BD1 WT (Homo sapiens, UniProt Q15059); assay: competitive AlphaLISA; assay type: binding
[4] = molecular target: M1 (h) (Homo sapiens, UniProt P11229); assay: CEREP ExpresSProfile; conditions: read-out: Mean % of control specific binding (±SD)
Chain of M1 (h) (P11229 whole entry): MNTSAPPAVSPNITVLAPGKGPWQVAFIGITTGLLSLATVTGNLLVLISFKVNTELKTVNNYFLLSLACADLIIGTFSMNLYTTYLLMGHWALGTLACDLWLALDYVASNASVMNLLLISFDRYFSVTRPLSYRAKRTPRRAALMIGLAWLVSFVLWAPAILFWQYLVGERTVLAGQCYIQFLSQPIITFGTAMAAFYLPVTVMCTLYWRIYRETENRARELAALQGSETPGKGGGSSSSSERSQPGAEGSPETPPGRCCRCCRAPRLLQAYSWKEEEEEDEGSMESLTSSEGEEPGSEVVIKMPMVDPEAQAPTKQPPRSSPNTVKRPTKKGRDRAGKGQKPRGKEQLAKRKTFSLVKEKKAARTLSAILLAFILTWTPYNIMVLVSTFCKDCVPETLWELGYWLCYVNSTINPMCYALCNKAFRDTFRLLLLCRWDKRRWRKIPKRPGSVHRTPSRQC

[5] = tested on: sst (non-selective); assay: CEREP ExpresSProfile; assay type: binding; conditions: 1 µM
[6] = molecular target: VPAC1 (VIP1) (h) (Homo sapiens, UniProt P32241); assay: CEREP ExpresSProfile; conditions: read-out: Mean % of control specific binding (±SD)
Chain of VPAC1 (VIP1) (h) (P32241 31-457): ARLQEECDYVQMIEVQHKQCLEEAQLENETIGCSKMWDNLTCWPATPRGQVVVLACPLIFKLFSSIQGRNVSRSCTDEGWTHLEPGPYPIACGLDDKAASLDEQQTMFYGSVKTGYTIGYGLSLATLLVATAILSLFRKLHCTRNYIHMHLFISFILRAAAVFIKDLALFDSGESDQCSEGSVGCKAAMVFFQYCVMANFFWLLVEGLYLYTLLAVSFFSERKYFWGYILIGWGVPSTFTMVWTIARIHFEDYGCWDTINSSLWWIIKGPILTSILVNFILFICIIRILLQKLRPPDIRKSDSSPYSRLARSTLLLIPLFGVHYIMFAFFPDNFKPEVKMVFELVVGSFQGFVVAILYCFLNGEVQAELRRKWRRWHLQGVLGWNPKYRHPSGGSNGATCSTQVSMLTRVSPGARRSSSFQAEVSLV
From the text: (§1) Receptor Reference Compound Mean % of control specific
Receptor & Ion-Channel Screening
CEREP ExpresSProfile panel

[7] = molecular target: A2A (h) (Homo sapiens, UniProt P29274); assay: CEREP ExpresSProfile; conditions: read-out: Mean % of control specific binding (±SD)
Chain of A2A (h) (P29274 whole entry): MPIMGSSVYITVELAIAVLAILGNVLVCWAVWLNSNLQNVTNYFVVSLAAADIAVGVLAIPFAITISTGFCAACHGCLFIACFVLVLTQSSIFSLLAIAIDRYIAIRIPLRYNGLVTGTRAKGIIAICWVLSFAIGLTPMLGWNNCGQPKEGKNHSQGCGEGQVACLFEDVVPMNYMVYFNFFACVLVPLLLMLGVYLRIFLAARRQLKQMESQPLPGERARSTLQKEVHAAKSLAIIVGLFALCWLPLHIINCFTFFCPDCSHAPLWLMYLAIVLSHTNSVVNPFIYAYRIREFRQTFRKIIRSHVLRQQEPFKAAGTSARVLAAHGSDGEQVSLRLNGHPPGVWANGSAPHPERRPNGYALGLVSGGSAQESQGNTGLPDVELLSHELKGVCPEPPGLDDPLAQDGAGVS

[8] = molecular target: B2 (h) (Homo sapiens, UniProt P30411); assay: CEREP ExpresSProfile; conditions: read-out: Mean % of control specific binding (±SD)
Chain of B2 (h) (P30411 whole entry): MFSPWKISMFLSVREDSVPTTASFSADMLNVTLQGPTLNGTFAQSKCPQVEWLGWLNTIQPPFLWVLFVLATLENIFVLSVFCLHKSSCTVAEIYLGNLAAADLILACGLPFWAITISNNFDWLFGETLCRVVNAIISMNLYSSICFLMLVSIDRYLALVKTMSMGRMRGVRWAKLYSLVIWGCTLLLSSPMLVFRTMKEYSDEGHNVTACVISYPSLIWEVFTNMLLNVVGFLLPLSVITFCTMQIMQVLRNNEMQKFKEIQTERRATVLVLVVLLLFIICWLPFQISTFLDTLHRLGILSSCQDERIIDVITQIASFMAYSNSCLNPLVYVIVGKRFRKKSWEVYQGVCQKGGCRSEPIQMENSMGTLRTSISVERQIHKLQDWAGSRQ

[9] = tested on: Cl- channel (GABA-gated); assay: CEREP ExpresSProfile; assay type: binding; conditions: 1 µM
[10] = molecular target: norepinephrine transporter (h) (Homo sapiens, UniProt P23975); assay: CEREP ExpresSProfile; conditions: read-out: Mean % of control specific binding (±SD)
Chain of norepinephrine transporter (h) (P23975 whole entry): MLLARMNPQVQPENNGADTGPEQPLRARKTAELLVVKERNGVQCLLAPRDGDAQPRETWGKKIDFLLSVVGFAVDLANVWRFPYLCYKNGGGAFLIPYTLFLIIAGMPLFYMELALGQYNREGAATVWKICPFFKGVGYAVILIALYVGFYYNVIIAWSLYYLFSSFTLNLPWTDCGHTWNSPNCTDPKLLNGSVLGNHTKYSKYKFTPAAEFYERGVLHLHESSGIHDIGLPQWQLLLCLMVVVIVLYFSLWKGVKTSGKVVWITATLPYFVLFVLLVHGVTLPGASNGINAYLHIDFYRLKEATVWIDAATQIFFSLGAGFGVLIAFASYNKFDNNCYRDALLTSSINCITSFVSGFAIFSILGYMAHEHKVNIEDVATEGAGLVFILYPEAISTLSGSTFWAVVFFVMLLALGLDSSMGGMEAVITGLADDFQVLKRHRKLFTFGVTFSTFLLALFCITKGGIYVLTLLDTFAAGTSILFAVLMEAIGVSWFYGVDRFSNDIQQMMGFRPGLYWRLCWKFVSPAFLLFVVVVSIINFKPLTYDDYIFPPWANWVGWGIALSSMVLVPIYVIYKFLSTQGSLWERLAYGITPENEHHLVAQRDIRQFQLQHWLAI
From the text: as §1
Receptor & Ion-Channel Screening
CEREP ExpresSProfile panel

[11] = tested on: 55 receptors, transporters and ion channels; assay: receptor, transporter and ion channel screen; assay type: binding; conditions: 1 μM, whole panel with the exception of MT1
[12] = molecular target: delta (DOP) (h) (Homo sapiens, UniProt P41143); assay: CEREP ExpresSProfile; conditions: read-out: Mean % of control specific binding (±SD)
From the text: as §1
Receptor & Ion-Channel Screening
CEREP ExpresSProfile panel

[13] = molecular target: M2 (h) (Homo sapiens, UniProt P08172); assay: CEREP ExpresSProfile; conditions: read-out: Mean % of control specific binding (±SD)
[14] = molecular target: 5-HT5a (h) (Homo sapiens, UniProt P47898); assay: CEREP ExpresSProfile; conditions: read-out: Mean % of control specific binding (±SD)
[15] = molecular target: kappa (KOP) (Rattus norvegicus, UniProt P34975); assay: CEREP ExpresSProfile; conditions: read-out: Mean % of control specific binding (±SD)
From the text: as §1
Receptor & Ion-Channel Screening
CEREP ExpresSProfile panel

[16] = tested on: GFP-BRD4 L/V constructs with NF-κB-RE/luc2P reporter in HEK293T cells; assay: NF-κB luciferase assay; assay type: cell-based, human; conditions: 1 µM, inhibiting either individual BD of BRD4
Protocol: To provide additional functional insights into the individual roles of BD1 vs. BD2 beyond chromatin binding, a luciferase assay was developed to monitor the expression of NF-κB target genes, inspired by work of Zou et al.[45] […] This luciferase induction was maintained with L/V mutations (but not L/A), consistent again with more WT-like functionality of L/V compared to L/A (Fig. 9A).
12 – NF-κB Luciferase Assay
Luciferase experiments were performed in human HEK293T cells seeded in a 24-well plate at 100 000 cells in […]
pBABE NF-κB-RE/luc2P reporter plasmid. Cells were transfected using Lipofectamine™ LTX (Invitrogen) with PLUS™ reagent, with each well receiving 0.5 µg of each plasmid, 2.5 µl LTX and 0.5 µl PLUS reagent. The next day cells were treated with compounds, giving a final concentration of 1 µM compound and 0.01% DMSO. 6 hours later cells were washed with PBS, lysed with passive lysis buffer (Promega) and stored at -20°C.
Luciferase activity was measured suing the Promega luciferase assay. In a black 384-well plate 3µl of clarified lysate was mixed with 15µl luciferase assay reagent and after 15 minutes luminescence was measured in a Pherastar FS. […]
NMR spectra were recorded on a Bruker 500 Ultrashield or a Bruker Ascend 400. […] High Resolution Mass Spectra (HRMS) were recorded on a Bruker micrOTOF. […]

[17] = tested on: Na+ channel (site 2); assay: CEREP ExpresSProfile; assay type: binding; conditions: 1 µM
[18] = molecular target: 5-HT7 (h) (Homo sapiens, UniProt P34969); assay: CEREP ExpresSProfile; conditions: read-out: Mean % of control specific binding (±SD)
Chain of 5-HT7 (h) (P34969 whole entry): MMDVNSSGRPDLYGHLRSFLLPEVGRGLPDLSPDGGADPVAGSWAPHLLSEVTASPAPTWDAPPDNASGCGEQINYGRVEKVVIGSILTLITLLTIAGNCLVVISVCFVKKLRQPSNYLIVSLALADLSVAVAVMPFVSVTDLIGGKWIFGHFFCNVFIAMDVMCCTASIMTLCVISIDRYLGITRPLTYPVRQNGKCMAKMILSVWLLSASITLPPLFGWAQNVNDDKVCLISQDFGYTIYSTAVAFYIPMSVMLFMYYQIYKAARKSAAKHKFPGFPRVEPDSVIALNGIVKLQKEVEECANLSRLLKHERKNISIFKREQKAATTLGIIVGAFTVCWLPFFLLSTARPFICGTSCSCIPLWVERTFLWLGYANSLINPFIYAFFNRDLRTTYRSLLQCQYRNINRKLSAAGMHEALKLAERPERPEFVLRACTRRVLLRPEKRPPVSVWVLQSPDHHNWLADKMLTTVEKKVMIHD

[19] = molecular target: D2S (h) (Homo sapiens, UniProt P14416); assay: CEREP ExpresSProfile; conditions: read-out: Mean % of control specific binding (±SD)
[20] = molecular target: 5-HT1B (Rattus norvegicus, UniProt P28564); assay: CEREP ExpresSProfile; conditions: read-out: Mean % of control specific binding (±SD)
Chain of 5-HT1B (P28564 whole entry): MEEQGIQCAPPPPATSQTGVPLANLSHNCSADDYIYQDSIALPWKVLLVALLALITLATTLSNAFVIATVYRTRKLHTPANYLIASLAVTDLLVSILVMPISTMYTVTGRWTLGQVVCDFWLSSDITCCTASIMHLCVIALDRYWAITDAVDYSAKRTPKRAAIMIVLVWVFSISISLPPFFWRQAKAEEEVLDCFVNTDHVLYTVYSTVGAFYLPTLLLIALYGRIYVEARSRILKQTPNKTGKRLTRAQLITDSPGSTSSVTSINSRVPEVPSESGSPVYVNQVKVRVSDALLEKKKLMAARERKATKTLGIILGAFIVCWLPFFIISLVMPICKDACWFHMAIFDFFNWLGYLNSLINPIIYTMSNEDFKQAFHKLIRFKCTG

[21] = molecular target: CB1 (h) (Homo sapiens, UniProt P21554); assay: CEREP ExpresSProfile; conditions: read-out: Mean % of control specific binding (±SD)
Chain of CB1 (h) (P21554 whole entry): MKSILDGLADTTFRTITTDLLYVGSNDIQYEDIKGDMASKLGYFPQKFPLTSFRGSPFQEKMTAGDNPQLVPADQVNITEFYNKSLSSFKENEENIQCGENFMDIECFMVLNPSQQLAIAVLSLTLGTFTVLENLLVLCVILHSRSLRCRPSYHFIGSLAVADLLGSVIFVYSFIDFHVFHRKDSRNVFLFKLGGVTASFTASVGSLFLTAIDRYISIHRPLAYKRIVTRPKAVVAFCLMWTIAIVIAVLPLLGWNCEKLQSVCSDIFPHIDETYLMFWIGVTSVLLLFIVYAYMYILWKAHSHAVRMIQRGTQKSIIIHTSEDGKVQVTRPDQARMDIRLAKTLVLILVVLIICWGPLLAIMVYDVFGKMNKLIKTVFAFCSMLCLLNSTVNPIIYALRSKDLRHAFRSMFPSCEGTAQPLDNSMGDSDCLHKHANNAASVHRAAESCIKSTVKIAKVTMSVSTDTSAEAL
From the text: as §1
Receptor & Ion-Channel Screening
CEREP ExpresSProfile panel

[22] = molecular target: GFP-labelled L/V BRD4 in U2OS cells (Homo sapiens, UniProt O60885, L387V/L94V); assay: FRAP; conditions: 200 nM, 2 μM SAHA
[23] = tested on: KV channel; assay: CEREP ExpresSProfile; assay type: binding; conditions: 1 µM
From the text: as §1
Receptor & Ion-Channel Screening
CEREP ExpresSProfile panel

[24] = molecular target: NOP (ORL1) (h) (Homo sapiens, UniProt P41146); assay: CEREP ExpresSProfile; conditions: read-out: Mean % of control specific binding (±SD)
Chain of NOP (ORL1) (h) (P41146 whole entry): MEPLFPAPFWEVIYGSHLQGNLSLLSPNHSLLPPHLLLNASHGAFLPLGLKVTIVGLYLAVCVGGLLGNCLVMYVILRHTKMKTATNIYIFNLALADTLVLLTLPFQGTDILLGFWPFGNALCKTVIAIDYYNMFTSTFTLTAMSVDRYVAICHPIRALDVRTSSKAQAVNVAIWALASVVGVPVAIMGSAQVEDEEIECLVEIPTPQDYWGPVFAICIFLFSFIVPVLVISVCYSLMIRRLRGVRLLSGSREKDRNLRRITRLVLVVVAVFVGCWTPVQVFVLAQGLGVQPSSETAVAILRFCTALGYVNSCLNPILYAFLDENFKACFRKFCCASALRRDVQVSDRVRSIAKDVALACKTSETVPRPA

[25] = molecular target: MC4 (h) (Homo sapiens, UniProt P32245); assay: CEREP ExpresSProfile; conditions: read-out: Mean % of control specific binding (±SD)
Chain of MC4 (h) (P32245 whole entry): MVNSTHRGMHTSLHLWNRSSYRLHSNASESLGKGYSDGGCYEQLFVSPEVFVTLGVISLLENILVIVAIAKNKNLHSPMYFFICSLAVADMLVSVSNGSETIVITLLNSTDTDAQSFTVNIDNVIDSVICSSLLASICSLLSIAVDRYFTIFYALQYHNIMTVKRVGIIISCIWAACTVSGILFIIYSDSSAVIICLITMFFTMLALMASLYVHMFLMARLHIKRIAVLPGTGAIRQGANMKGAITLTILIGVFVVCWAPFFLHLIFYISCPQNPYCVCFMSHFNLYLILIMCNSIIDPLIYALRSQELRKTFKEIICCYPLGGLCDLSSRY
From the text: as §1
Receptor & Ion-Channel Screening
CEREP ExpresSProfile panel

Chain of BRD2 BD1 WT (P25440 71-176): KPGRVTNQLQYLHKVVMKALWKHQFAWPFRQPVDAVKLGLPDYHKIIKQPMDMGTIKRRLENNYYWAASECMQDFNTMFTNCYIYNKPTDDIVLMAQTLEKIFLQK
Chain of BRD3 BD1 WT (Q15059 24-144): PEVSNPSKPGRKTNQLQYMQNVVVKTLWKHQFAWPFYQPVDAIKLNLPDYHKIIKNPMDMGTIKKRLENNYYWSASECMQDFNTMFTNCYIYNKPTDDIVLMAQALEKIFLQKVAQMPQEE

## CC[C@@H](C(=O)OC)[C@@H]1N=C(c2ccc(Cl)cc2)c2ccc(OC)cc2-n2c(C)nnc21 (racemic) [Compound 8]
[1]
  IC50: 10 µM
[2]
  half-life at 50 µM: > 180 min
[3]
  IC50: 2510 nM

## COC(=O)[C@H](C)[C@@H]1N=C(c2ccc(Cl)cc2)c2ccc(OC)cc2-n2c(C)nnc21 [(2R,3S)-7]
[4]
  remaining activity at 1 µM: 104%
[5]
  Mean % of control specific binding (±SD): 108 (6) %
[6]
  remaining activity at 1 µM: 98%
[7]
  remaining activity at 1 µM: 99%
[8]
  remaining activity at 1 µM: 98%
[9]
  Mean % of control specific binding (±SD): 98 (4) %
[10]
  remaining activity at 1 µM: 88%
[11]
  inhibition: no more than 20%
[12]
  remaining activity at 1 µM: 100%
[13]
  remaining activity at 1 µM: 105%
[14]
  remaining activity at 1 µM: 109%
[15]
  remaining activity at 1 µM: 96%
[16]
  effect on NF-κB signalling: strongly impacted on NF-κB signalling
[17]
  Mean % of control specific binding (±SD): 105 (6) %
[18]
  remaining activity at 1 µM: 106%
[19]
  remaining activity at 1 µM: 95%
[20]
  remaining activity at 1 µM: 98%
[21]
  remaining activity at 1 µM: 90%
[22]
  displacement of L/V BRD4 (FRAP): almost complete displacement
[23]
  Mean % of control specific binding (±SD): 100 (0) %
[24]
  remaining activity at 1 µM: 94%
[25]
  remaining activity at 1 µM: 89%
